In ChEMBL document CHEMBL5137058, “Therapeutic Strategies to Target the Androgen Receptor” (J Med Chem, 2022):
pEC50, pIC50, pKi: −log10 of the molar value.

Key:
Androgen receptor [1] = molecular target: T1, Androgen receptor (Homo sapiens, UniProt P10275); format: cell-based, LNCaP C4-2
T1 sequence (P10275 whole entry): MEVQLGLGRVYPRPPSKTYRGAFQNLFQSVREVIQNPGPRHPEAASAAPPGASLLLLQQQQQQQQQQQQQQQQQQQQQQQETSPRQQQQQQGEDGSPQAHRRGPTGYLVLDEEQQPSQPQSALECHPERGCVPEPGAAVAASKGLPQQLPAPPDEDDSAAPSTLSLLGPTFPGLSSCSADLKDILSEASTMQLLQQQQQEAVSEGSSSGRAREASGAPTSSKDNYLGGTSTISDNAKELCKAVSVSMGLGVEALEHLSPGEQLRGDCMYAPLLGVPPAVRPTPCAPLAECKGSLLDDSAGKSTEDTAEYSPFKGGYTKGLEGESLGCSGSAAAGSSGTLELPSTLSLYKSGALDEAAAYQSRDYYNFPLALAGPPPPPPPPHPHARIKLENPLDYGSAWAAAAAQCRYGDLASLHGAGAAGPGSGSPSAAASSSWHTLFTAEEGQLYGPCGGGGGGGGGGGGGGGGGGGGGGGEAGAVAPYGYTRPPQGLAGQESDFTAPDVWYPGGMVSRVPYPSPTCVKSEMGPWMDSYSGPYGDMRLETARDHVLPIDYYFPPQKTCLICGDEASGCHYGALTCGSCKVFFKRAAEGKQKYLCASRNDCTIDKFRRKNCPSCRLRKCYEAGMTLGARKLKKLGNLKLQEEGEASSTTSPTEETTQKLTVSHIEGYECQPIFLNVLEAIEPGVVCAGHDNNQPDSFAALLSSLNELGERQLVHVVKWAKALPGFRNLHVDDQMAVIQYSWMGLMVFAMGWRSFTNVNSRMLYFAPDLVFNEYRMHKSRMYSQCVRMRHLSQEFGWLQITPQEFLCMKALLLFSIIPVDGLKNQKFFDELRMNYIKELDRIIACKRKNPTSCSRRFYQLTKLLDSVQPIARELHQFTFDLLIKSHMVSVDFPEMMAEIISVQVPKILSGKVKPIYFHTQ
Description: Antagonist activity at Androgen receptor in human LNCaP C4-2 cells transfected with PSA6.1-luc and pRL-TK measured by luciferase gene reporter assay

Androgen receptor [2] = molecular target: T1, Androgen receptor; assay: Antagonist activity at Androgen receptor in human LNCaP cells assessed as inhibition of Binding Function 3 (BF3) of AR measured by luciferase assay; format: cell-based
[3] = In vivo agonist activity at Androgen receptor in rat assessed as increase in levator ani muscle weight administered orally for 14 days; format: functional; conditions: 336 h, route po, time 14 day
[4] = Half-life in plasma of rat; format: ADME
Androgen receptor [5] = molecular target: T1, Androgen receptor; assay: Agonist activity at human Androgen receptor expressed in African green monkey CV-1 cells measured by ARE-luciferase assay; format: cell-based
Androgen receptor [6] = molecular target: T1, Androgen receptor; assay: Activation of human Androgen receptor N/C (N-terminal/C-terminal) interaction
[7] = molecular target: T2, Androgen receptor (Homo sapiens) (UniProt P10275); assay: Antagonist activity at Androgen receptor in human LNCaP cells assessed as inhibition of PSA expression at 10 uM measured by ELISA assay; format: cell-based; parameters: scale not given: the % may be the effect or the level left
T2 sequence (whole entry): T1 sequence (P10275 whole entry)

[8] = Inhibition of human LNCaP cell growth at 10 uM measured after 24 hrs by AlamarBlue staining method; format: functional
[9] = Antitumor activity against bicalutamide-resistant human LNCaP-cxD2 cells xenografted in mouse at 25 mg/kg, po administered for 28 days; format: functional; conditions: time 28 day
Androgen receptor [10] = molecular target: T3, Androgen receptor (Homo sapiens, UniProt P10275, T878A); assay: Binding affinity to bicalutamide-resistant Androgen receptor T877A mutant (unknown origin)
T3 sequence (P10275 whole entry T878A): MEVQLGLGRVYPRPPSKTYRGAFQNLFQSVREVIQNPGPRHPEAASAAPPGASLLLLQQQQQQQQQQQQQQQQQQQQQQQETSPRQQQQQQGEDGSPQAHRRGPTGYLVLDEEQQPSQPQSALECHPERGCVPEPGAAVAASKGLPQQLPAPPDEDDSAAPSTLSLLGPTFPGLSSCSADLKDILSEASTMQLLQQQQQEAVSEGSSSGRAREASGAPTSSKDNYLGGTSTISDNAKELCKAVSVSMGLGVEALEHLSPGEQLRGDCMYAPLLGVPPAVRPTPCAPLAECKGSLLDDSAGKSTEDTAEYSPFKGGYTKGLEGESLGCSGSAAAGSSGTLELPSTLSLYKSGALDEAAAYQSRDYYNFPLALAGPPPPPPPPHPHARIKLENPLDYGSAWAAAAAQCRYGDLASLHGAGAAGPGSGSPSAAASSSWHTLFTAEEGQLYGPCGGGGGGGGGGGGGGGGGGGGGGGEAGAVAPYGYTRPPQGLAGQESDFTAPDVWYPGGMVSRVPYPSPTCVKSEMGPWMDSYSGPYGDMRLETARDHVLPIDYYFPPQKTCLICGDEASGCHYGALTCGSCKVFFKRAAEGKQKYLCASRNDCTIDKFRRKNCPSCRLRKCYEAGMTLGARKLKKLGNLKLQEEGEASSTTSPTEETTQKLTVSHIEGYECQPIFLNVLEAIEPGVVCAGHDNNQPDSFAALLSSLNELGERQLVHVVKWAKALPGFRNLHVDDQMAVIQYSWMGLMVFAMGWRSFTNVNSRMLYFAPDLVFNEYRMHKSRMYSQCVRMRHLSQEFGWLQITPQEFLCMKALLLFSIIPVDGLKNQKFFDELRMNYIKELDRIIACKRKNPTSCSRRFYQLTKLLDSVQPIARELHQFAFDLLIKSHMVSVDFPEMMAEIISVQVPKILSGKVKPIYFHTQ

Androgen receptor [11] = molecular target: T1, Androgen receptor; assay: Binding affinity to wild-type Androgen receptor (unknown origin)
Androgen receptor [12] = molecular target: T1, Androgen receptor; assay: Antagonist activity at wild-type Androgen receptor (unknown origin) expressed in African green monkey COS-7 cells measured as gene transcription level; format: cell-based
Androgen receptor [13] = molecular target: T3, Androgen receptor; assay: Antagonist activity at Androgen receptor T877A mutant (unknown origin) expressed in African green monkey COS-7 cells measured as gene transcription level; format: cell-based
Androgen receptor [14] = molecular target: T1, Androgen receptor; assay: Antagonist activity at Androgen receptor in human MDA-MB-453 cells measured by SEAP reporter gene assay; format: cell-based
Rattus norvegicus [15] = assay: Antagonist activity in mature male Sprague-Dawley rat assessed as decrease in seminal vesicle and prostate weight at 15 mg/kg, po administered once a day for 14 days; format: functional; parameters: scale not given: the % may be the effect or the level left; conditions: time 14 day
Androgen receptor [16] = molecular target: T1, Androgen receptor; assay: Displacement of [3H]DHT from Androgen receptor expressed in human MDA-MB-453 cells; format: cell-based
[17] = In vivo agonist activity at Androgen receptor in castrated rat assessed as increase in levator ani muscle weight at 2 mg administered orally per day for 5 days; format: functional; conditions: route po, time 5 day
[18] = In vivo agonist activity at Androgen receptor in castrated rat assessed as increase in prostate weight at 2 mg administered orally per day for 5 days; format: functional; conditions: route po, time 5 day
[19] = molecular target: Protein cereblon/Androgen receptor (Homo sapiens, UniProt P10275+Q96SW2); assay: Protac activity at CRBN/Androgen receptor in human LNCaP cells assessed as Androgen receptor degradation; format: cell-based
Chain of Protein cereblon/Androgen receptor (Q96SW2 whole entry, one chain of several): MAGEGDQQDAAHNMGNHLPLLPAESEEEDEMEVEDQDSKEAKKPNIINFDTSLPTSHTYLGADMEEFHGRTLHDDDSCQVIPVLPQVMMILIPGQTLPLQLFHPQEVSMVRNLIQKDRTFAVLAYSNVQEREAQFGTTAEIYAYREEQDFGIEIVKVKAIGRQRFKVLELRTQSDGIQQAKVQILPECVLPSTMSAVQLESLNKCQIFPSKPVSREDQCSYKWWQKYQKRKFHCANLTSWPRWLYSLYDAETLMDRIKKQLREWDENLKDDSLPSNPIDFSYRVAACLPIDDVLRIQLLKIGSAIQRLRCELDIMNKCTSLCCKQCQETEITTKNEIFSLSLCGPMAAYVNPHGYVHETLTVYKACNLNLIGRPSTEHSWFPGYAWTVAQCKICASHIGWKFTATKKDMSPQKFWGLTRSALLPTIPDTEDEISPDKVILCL

Androgen receptor [20] = molecular target: T1, Androgen receptor; assay: Agonist activity at Androgen receptor (unknown origin) measured by androgen response element luciferase assay
Androgen receptor [21] = molecular target: T1, Androgen receptor; assay: Binding affinity to Androgen receptor (unknown origin)
Androgen receptor [22] = molecular target: T1, Androgen receptor; assay: Antagonist activity at Androgen receptor in human LNCaP cells assessed as inhibition of Binding Function 3 (BF3) of AR measured by enhanced green fluorescent protein transcriptional (eGFPT) assay; format: cell-based
Androgen receptor [23] = molecular target: Androgen receptor (Rattus norvegicus, UniProt P15207)
Chain of Androgen receptor (Rattus norvegicus, UniProt P15207) (P15207 whole entry S389L): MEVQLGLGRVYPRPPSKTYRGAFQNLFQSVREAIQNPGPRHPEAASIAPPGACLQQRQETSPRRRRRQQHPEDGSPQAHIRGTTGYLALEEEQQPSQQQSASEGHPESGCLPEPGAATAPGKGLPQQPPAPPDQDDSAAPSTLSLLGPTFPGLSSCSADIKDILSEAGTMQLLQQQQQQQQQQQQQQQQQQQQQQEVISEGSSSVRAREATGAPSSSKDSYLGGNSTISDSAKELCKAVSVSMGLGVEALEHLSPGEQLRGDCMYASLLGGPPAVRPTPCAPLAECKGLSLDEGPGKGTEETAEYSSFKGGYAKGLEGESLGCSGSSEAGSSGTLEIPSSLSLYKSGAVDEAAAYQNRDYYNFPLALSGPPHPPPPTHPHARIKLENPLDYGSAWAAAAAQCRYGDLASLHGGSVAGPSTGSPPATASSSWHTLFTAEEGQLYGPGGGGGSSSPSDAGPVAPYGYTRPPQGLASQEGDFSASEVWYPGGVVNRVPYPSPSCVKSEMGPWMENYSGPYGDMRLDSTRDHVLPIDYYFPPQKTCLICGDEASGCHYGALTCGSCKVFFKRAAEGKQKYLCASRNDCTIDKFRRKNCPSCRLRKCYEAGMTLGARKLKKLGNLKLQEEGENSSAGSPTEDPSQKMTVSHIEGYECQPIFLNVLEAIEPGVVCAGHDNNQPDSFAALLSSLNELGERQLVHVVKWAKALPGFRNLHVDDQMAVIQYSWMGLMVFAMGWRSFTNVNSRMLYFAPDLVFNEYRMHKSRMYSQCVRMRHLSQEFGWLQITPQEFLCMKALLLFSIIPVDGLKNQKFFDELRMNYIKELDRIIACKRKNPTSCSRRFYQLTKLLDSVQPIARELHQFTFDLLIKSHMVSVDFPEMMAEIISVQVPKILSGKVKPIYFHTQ
Description: Binding affinity to rat Androgen receptor ligand binding domain measured by competitive ligand binding assay

[24] = In vivo agonist activity at Androgen receptor in male rat assessed as increase in prostate weight at 0.1 mg/kg, po administered for 14 days; format: functional; conditions: time 14 day
[25] = In vivo agonist activity at Androgen receptor in male rat assessed as increase in levator ani muscle weight at 0.1 mg/kg, po administered for 14 days; format: functional; conditions: time 14 day
[26] = Antiproliferative activity against androgen-sensitive mouse SEM-107 cells; format: functional, cell-based
T47D = assay: Antiproliferative activity against human T47D cells; format: functional, cell-based
Rattus norvegicus [27] = assay: Anti-androgenic activity in rat assessed as decrease in seminal vesicle weight at 2.58 microM/Kg, po administered twice daily for 7 days; format: functional; parameters: scale not given: the % may be the effect or the level left; conditions: time 7 day, at 2.58 µmol/kg
Androgen receptor [28] = molecular target: T1, Androgen receptor; assay: Antagonist activity at Androgen receptor (unknown origin) assessed as downregulation of AR
[29] = Oral bioavailability in rat; format: ADME, organism-based; conditions: in vivo
Rattus norvegicus [30] = assay: Antagonist activity in mature male Sprague-Dawley rat assessed as decrease in seminal vesicle and prostate weight at 10 mg/kg, po administered once a day for 14 days; format: functional; parameters: scale not given: the % may be the effect or the level left; conditions: time 14 day
Rattus norvegicus [31] = assay: Antagonist activity in mature male Sprague-Dawley rat assessed as decrease in seminal vesicle and prostate weight at 1 mg/kg, po administered once a day for 14 days; format: functional; parameters: scale not given: the % may be the effect or the level left; conditions: time 14 day
Androgen receptor [32] = molecular target: T1, Androgen receptor; assay: Antagonist activity at Androgen receptor in human LNCaP cells measured by SEAP reporter gene assay; format: cell-based

With `Cc1ccc(Cl)cc1N1CCN(C(=O)[C@@H]2C[C@@H]2c2ccc(F)cc2)CC1` the pEC50 (Androgen receptor [1]) was 5.77.
`CCS(=O)(=O)Nc1cccc(-c2cc(=O)n(-c3ccc(Cl)c(Cl)c3)nc2C)c1` showed a pIC50 (Androgen receptor [2]) of 5.20.
`CC[C@H]1[C@@H]2[C@@H](O)CCN2C(=O)N1c1ccc(C#N)c(Cl)c1C` showed an ED50 [3] of 0.09 mg/kg and a half-life [4] of 5.5 h.
`N#Cc1ccc(-c2ccc(O)cc2F)[nH]1` showed a pEC50 (Androgen receptor [5]) of 9.47 and a pEC50 (Androgen receptor [6]) of 5.92.
`COc1cc(/C=N/NC(=O)c2cc3c(ccc4ccccc43)o2)cc(OC)c1O` showed an Activity [7] of 30% and an inhibition at 10 µM [8] of 30%.
For `Cc1c(C#N)c(-c2ccc(C#N)cc2)c(C)n1-c1cnc(Cl)c(CO)c1`, the T/C [9] was 15%, the pIC50 (Androgen receptor [10]) was 7.00 and the pIC50 (Androgen receptor [11]) was 7.43. It also gave a pIC50 (Androgen receptor [12]) of 7.60 and a pIC50 (Androgen receptor [13]) of 6.96.
With `CNC(=O)[C@]12C(=O)N(c3ccc(C#N)c(C(F)(F)F)c3)C(=O)[C@H]1[C@H]1C[C@H](F)[C@@H]2C1` the pIC50 (Androgen receptor [14]) was 7.04, the Activity (Rattus norvegicus [15]) was 35% and the pKi (Androgen receptor [16]) was 8.10.
`C[C@@]12CC(C(F)(F)F)=NN1C(=O)N(c1ccc(C#N)c(C(F)(F)F)c1)C2=O` gave an Activity [17] of 75% and an Activity [18] of 11%.
Molecule `C[C@](O)(COc1ccc(OCCOCCOc2cccc3c2C(=O)N(C2CCC(=O)NC2=O)C3=O)cc1)C(=O)Nc1ccc(I)c(C#N)c1` (stereo partly specified) has a DC50 [19] of 5200 nM.
In the case of `C[C@](O)(CCOc1ccc(F)cc1)C(=O)N1CCc2c(C#N)cccc21`, the pEC50 (Androgen receptor [20]) was 8.60 and the pIC50 (Androgen receptor [21]; read-out: IC50) was 7.90.
Molecule `CC(C)C(NC(=O)c1cc2ccc(F)cc2[nH]1)c1ccco1` (stereo unspecified) has a pIC50 (Androgen receptor [22]) of 6.37.
With `C[C@](O)(Cn1ccc2cc(F)ccc21)C(=O)Nc1ccc(C#N)c(C(F)(F)F)c1` the pKi (Androgen receptor [23]) was under 5.00.
For `Cc1c(/N=C2\O[C@@H](C(F)(F)F)[C@@H]3[C@@H](O)CCN23)ccc(C#N)c1Cl`, the Activity [24] was 100% and the Activity [25] was 100%.
With `CC(C)(O)C(=O)Nc1ccc([N+](=O)[O-])c(C(F)(F)F)c1` [HYDROXYFLUTAMIDE] the pIC50 [26] was 7.08 and the pIC50 (T47D) was 7.35.
`N#Cc1ccc(CN2CCN(c3ccc4nnc(C(F)(F)F)n4n3)CC2)cc1` gave an Activity (Rattus norvegicus [27]) of 80%, an IC50 (Androgen receptor [21]; read-out: pIC50 (converted)) of over 79400 nM and a pIC50 (Androgen receptor [28]) of under 5.80. The bioavailability [29] was 100%.
For `CCS(=O)(=O)N[C@@H]1C[C@@]2(C)O[C@]1(C)[C@@H]1C(=O)N(c3ccc(C#N)c(C(F)(F)F)c3)C(=O)[C@@H]12`, the Activity (Rattus norvegicus [30]) was 74%, the Activity (Rattus norvegicus [31]) was 42% and the pIC50 (Androgen receptor [14]) was 7.80. It also gave a pIC50 (Androgen receptor [32]) of 6.82 and a pKi (Androgen receptor [16]) of 8.77.
